Test results taken from ChEMBL document CHEMBL5149996, “Structure-Based Optimization and Discovery of M3258, a Specific Inhibitor of the Immunoproteasome Subunit LMP7 (β5i)” (J Med Chem, 2021).

Legend:
[1] = biological target: T1, Proteasome Macropain subunit MB1 (Homo sapiens, UniProt P28074); assay: Inhibition of human 20S proteasome beta5 subunit using Suc-LLVY-AMC as substrate preincubated for 2 hrs followed by substrate addition and measured after 1 hr by fluorescence intensity assay
T1 sequence (P28074 whole entry): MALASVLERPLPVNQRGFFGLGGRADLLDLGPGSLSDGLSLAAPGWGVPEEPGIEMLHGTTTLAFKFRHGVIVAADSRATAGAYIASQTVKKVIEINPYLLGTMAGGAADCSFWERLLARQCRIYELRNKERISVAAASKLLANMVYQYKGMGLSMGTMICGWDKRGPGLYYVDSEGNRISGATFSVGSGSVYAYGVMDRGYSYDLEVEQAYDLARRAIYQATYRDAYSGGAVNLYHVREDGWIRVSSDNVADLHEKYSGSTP

Homo sapiens [2] = organism: Homo sapiens; assay: Selectivity ratio of IC50 for inhibition of human 20S proteasome beta5 subunit to IC50 for inhibition of human 20S immunoproteasome beta-5i subunit
[3] = biological target: T2, Proteasome subunit beta type-8 (Homo sapiens, UniProt P28062); assay: Inhibition of 20S immunoproteasome beta-5i subunit in human PBMC using Ac-ANW-luciferin substrate preincubated for 2 hrs followed by substrate addition and measured after 30 mins by luminometric analysis; format: cell-based
T2 sequence (P28062 whole entry): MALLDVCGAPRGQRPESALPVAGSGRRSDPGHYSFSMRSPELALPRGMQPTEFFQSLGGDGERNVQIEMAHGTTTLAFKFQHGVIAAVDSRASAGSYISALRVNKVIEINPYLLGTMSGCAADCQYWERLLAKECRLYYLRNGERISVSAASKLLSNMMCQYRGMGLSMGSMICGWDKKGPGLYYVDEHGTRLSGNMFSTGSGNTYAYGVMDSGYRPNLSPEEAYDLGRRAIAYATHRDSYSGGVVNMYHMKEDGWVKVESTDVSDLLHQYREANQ

[4] = biological target: T2, Proteasome subunit beta type-8; assay: Inhibition of human 20S immunoproteasome beta-5i subunit using Suc-LLVY-AMC as substrate preincubated for 2 hrs followed by substrate addition and measured after 1 hr by fluorescence intensity assay
[5] = biological target: T1, Proteasome Macropain subunit MB1; assay: Inhibition of 20S proteasome beta5 subunit in human A549 cells using Suc-LLVY-luciferin substrate preincubated for 2 hrs followed by substrate addition and measured after 30 mins by luminometric analysis; format: cell-based
Homo sapiens [6] = organism: Homo sapiens; assay: Selectivity ratio of IC50 for inhibition of 20S proteasome beta5 subunit in human A549 cells to IC50 for inhibition of 20S immunoproteasome beta-5i subunit in human PBMC; format: cell-based
[7] = Lipophilicity, log P of the compound; format: physicochemical; settings: octanol/water
[8] = Intrinsic clearance in mouse liver microsomes measured per mg protein; format: ADME, Microsome; settings: read-out: CLH
[9] = Clearance in mouse hepatocytes measured per million of cells; format: ADME, cell-based, Hepatocyte; settings: read-out: CLH

IC50 [1] [nM]	Ratio IC50 (Homo sapiens [2])	IC50 [3] [nM]	IC50 [4] [nM]	IC50 [5] [nM]	logP [7]	microsomal CLint [8] [µL/min/mg]	hepatocyte CLint [9] [µL/min/1e6 cells]	Compound	Ratio IC50 (Homo sapiens [6])
15000	182	434	85	24500				Cc1ccc(C[C@H](NC(=O)Cc2ccccc2)B(O)O)cc1C	56
5600	148	983	38	8750				O=C(Cc1ccccc1)N[C@@H](Cc1ccc(Cl)cc1)B(O)O	8.9
410	212	18	1.9	328				O=C(Cc1cnccn1)N[C@@H](Cc1coc2ccccc12)B(O)O	18
1700	334	42	5.2	2220				N#Cc1ccccc1CC(=O)N[C@@H](Cc1coc2ccccc12)B(O)O	52
400	205	10.6	1.9	241				COCCC(=O)N[C@@H](Cc1coc2ccccc12)B(O)O	23
4300	410	13.7	10	1690	1.85	19	26.7	O=C(N[C@@H](Cc1coc2ccccc12)B(O)O)[C@@H]1CCOC1	123
230	101	15.5	2.3	204				O=C(Cc1ncccn1)N[C@@H](Cc1coc2ccccc12)B(O)O	13
20000	104	824	200	16500				O=C(Cc1ccccc1)N[C@@H](Cc1c(Cl)oc2ccccc12)B(O)O	
530	168	22.8	3.1	785				O=C(Cc1ccccc1)N[C@@H](Cc1coc2c(F)cccc12)B(O)O	34
26000	194	896	130	> 30000				Cc1ccc(C[C@H](NC(=O)Cc2ccccc2)B(O)O)c(C)c1	> 33
15000	15	3300	1000	7000				CC(C)C[C@H](NC(=O)Cc1ccccc1)B(O)O	2.1
860	210	41.5	4.1	2060				O=C(Cc1ccccc1)N[C@@H](Cc1coc2c(Cl)cccc12)B(O)O	49
540	232	24.7	2.3	646				O=C(Cc1cccnc1)N[C@@H](Cc1coc2ccccc12)B(O)O	26
1700	272	164	6.4	7320				Cc1c(Cl)ccc2c(C[C@H](NC(=O)Cc3ccccc3)B(O)O)coc12	44
140	63	8.9	2.2	222				COc1cccc2c(C[C@H](NC(=O)Cc3ccccc3)B(O)O)coc12	24
6300	69	438	91	6290				Cc1ccc(C[C@H](NC(=O)Cc2ccccc2)B(O)O)cc1	14

IC50 [1] [nM]	Ratio IC50 (Homo sapiens [2])	IC50 [3] [nM]	IC50 [4] [nM]	IC50 [5] [nM]	logP [7]	microsomal CLint [8] [µL/min/mg]	hepatocyte CLint [9] [µL/min/1e6 cells]	Compound	Ratio IC50 (Homo sapiens [6])
2900	1620	25	1.8	6100				O=C(Cc1ccccc1)N[C@@H](C[C@@H]1COc2c(Cl)cccc21)B(O)O	243
2300	222	71	11	2540				O=C(Cc1ccncc1)N[C@@H](Cc1coc2ccccc12)B(O)O	36
> 30000	> 49	9670	610	> 30000				O=C(Cc1ccccc1)N[C@@H](C[C@H]1COc2c(Cl)cccc21)B(O)O	
24000	128	400	190	15000	1.9	34	99.7	O=C(N[C@@H](Cc1coc2ccccc12)B(O)O)[C@@H]1CCCO1	38
5000	175	55	28	3000	2.1	16		O=C(N[C@@H](Cc1coc2ccccc12)B(O)O)[C@H]1CCOC1	54
1400	70	27.1	18	420				CC(=O)N[C@@H](Cc1coc2ccccc12)B(O)O	16
14000	3150	60	4.4	> 30000				Cc1cccc2c1OC[C@H]2C[C@H](NC(=O)Cc1ccccc1C#N)B(O)O	> 496
770	212	31	3.7	894				O=C(Cn1cccn1)N[C@@H](Cc1coc2ccccc12)B(O)O	29
1200	276	29	4.5	2100				Cc1cccc2c(C[C@H](NC(=O)Cc3ccccc3)B(O)O)coc12	71
16000	99	643	160	9560				O=C(Cc1ccccc1)N[C@@H](Cc1ccccc1)B(O)O	15
7200	2330	53	3.1	14000				Cc1cccc2c1OC[C@H]2C[C@H](NC(=O)Cc1ccccc1)B(O)O	262
7400	2570	51	2.9	20900				N#Cc1ccccc1CC(=O)N[C@@H](C[C@@H]1COc2c(Cl)cccc21)B(O)O	406
5000	172	824	29	10100				O=C(Cc1ccccc1)N[C@@H](Cc1cc2ccccc2o1)B(O)O	12
820	137	26.7	6	520				COCC(=O)N[C@@H](Cc1coc2ccccc12)B(O)O	20
930	158	40	5.9	817	2.1	48	90.7	O=C(N[C@@H](Cc1coc2ccccc12)B(O)O)[C@H]1CCCO1	20
> 30000	> 25	1410	1200	5900				Cc1ccc(C[C@@H](NC(=O)Cc2ccccc2)B(O)O)cc1C	4.2

Compound	IC50 [1] [nM]	Ratio IC50 (Homo sapiens [2])	IC50 [3] [nM]	IC50 [4] [nM]	IC50 [5] [nM]	logP [7]	microsomal CLint [8] [µL/min/mg]	hepatocyte CLint [9] [µL/min/1e6 cells]	Ratio IC50 (Homo sapiens [6])
O=C(N[C@@H](Cc1coc2ccccc12)B(O)O)[C@@H]1C[C@@H]2CC[C@H]1O2	15000	173		89					
O=C(N[C@@H](Cc1coc2ccccc12)B(O)O)[C@H]1C[C@H]2CC[C@@H]1O2	> 30000	> 210		140					
